Test system: LuxArray 1.04 E. coli strains (luxCDABE gene fusions)
Experiment: LuxArray 1.04 limonene stress of the reporter array in liquid culture
Type: cell-based
Conditions: for number of gene fusions upregulated by 2 fold or more / upregulation of gene fusion: 80% saturated limonene in LB; for number of gene fusions upregulated by 2 fold or more: LuxArray 1.04 (849 fusions)
Method: Microplates from −80° C. containing the LuxArray 1.04 E. coli strains were thawed and used to inoculate 100 μl LB medium supplemented with 100 μg/ml ampicillin in Costar#3595 flat bottomed 96-well microplates. Following overnight growth at 37° C., the plates were visually examined and any wells with little or no turbidity were recorded. Then these cultures were diluted by transfer of 15 μl to 135 μl LB medium in Costar #3595, flat bottom 96-well microplates and were moderately swirl shaken on an IKA Schuttler MTS 4 shaker at setting 400 for two hrs at 37° C. in a humidified box. Twenty μl of each these actively growing cultures were transferred to the corresponding well in sets of three microplates, one containing 80 μl of LB medium, another containing 80 μl of LB medium saturated with limonene at room temperature, and the third containing 40 μl of LB medium saturated with limonene and 40 μl of LB medium. An initial (zero time) reading was taken using an MLX microplate luminometer (Dynex) pre-warmed to 37° C. Then the plates were placed at 37° C. without shaking. Additional bioluminescent measurements were taken at 45, 90, and 135 minutes. To limit the number of microplates handled each day, LuxArray 1.04 microplates 1 to 5, microplates 6 to 10, microplates 11 to 15, and microplates […] were used on each of four different days.
The data were normalized to correct for growth-inhibition caused by limonene on the basis of each individual day that data was collected. The bioluminescence (RLU) of each individual culture for each day of experimentation under each of the three conditions, were added to determine the daily array total RLU. These were used to find a daily normalization factor (DNF) as follows:
DNF=Daily total array signal(time zero, LB control)/Daily total array signal(time x, condition y)
Each measurement from the corresponding day, time point, and condition was multiplied by DNF to yield a normalized signal. The data from wells that were scored to have little or no growth were not used in further analysis. The normalized data were analyzed with GeneSpring (Silicon Genetics) software, which averaged the signal from each of the duplicate cultures for each reporter gene fusion.
Thus, patterns of gene expression from the 80% saturated limonene in LB medium were further examined. […] These lists were examined and gene fusions with very low normalized RLU values (<0.012 RLU) at all conditions were eliminated. […] The designation of “>2X” is given for upregulation while “*” is listed if the expression was less than 2 fold increased. At 45 minutes, the expression of fourteen gene fusions was increased; none of these was increased 3 fold or higher. At 90 minutes, 37 gene fusions were induced; these included all but one of the gene fusions observed at 45 minutes. […] These were fusions of the luxCDABE reporter to the promoter regions of uhpT (3.8×), nirB (3.7×) and narK (3.6×). At 135 minutes, 39 gene fusions were induced, which included 13 fusions not observed at 45 or 90 minutes.

C=C(C)[C@H]1CC=C(C)CC1 [limonene]
upregulation of gene expression overall (40% saturated limonene in LB medium): little to no upregulation of gene expression
number of gene fusions upregulated by 2 fold or more (45 minutes): fourteen
number of gene fusions upregulated by 2 fold or more (90 minutes): 37 gene fusions
number of gene fusions upregulated by 2 fold or more (135 minutes): 39 gene fusions
upregulation of gene fusion (b0005 fusion, 45 minutes): * (“*” is listed if the expression was less than 2 fold increased)
upregulation of gene fusion (b0005 fusion, 90 minutes): * (“*” is listed if the expression was less than 2 fold increased)
upregulation of gene fusion (b0005 fusion, 135 minutes): >2X (The designation of “>2X” is given for upregulation)
upregulation of gene fusion (b0123 (yacK) fusion, 45 minutes): * (“*” is listed if the expression was less than 2 fold increased)
upregulation of gene fusion (b0314 (betT) fusion, 45 minutes): * (“*” is listed if the expression was less than 2 fold increased)
upregulation of gene fusion (b0314 (betT) fusion, 90 minutes): >2X (The designation of “>2X” is given for upregulation)
upregulation of gene fusion (b0314 (betT) fusion, 135 minutes): >2X (The designation of “>2X” is given for upregulation)
upregulation of gene fusion (b0417 fusion, 45 minutes): * (“*” is listed if the expression was less than 2 fold increased)
upregulation of gene fusion (b0417 fusion, 90 minutes): >2X (The designation of “>2X” is given for upregulation)
upregulation of gene fusion (b0417 fusion, 135 minutes): >2X (The designation of “>2X” is given for upregulation)
upregulation of gene fusion (b0422 (xseB) fusion, 45 minutes): * (“*” is listed if the expression was less than 2 fold increased)
upregulation of gene fusion (b0422 (xseB) fusion, 90 minutes): >2X (The designation of “>2X” is given for upregulation)
upregulation of gene fusion (b0422 (xseB) fusion, 135 minutes): * (“*” is listed if the expression was less than 2 fold increased)
upregulation of gene fusion (b0572 fusion, 45 minutes): * (“*” is listed if the expression was less than 2 fold increased)
upregulation of gene fusion (b0572 fusion, 90 minutes): >2X (The designation of “>2X” is given for upregulation)
upregulation of gene fusion (b0572 fusion, 135 minutes): >2X (The designation of “>2X” is given for upregulation)
upregulation of gene fusion (b0593 (entC) fusion, 45 minutes): * (“*” is listed if the expression was less than 2 fold increased)
upregulation of gene fusion (b0593 (entC) fusion, 90 minutes): >2X (The designation of “>2X” is given for upregulation)
upregulation of gene fusion (b0593 (entC) fusion, 135 minutes): >2X (The designation of “>2X” is given for upregulation)
upregulation of gene fusion (b0839 (dacC) fusion, 45 minutes): * (“*” is listed if the expression was less than 2 fold increased)
upregulation of gene fusion (b0839 (dacC) fusion, 90 minutes): >2X (The designation of “>2X” is given for upregulation)
upregulation of gene fusion (b0839 (dacC) fusion, 135 minutes): >2X (The designation of “>2X” is given for upregulation)
upregulation of gene fusion (b1188 (ycgB) fusion, 45 minutes): * (“*” is listed if the expression was less than 2 fold increased)
upregulation of gene fusion (b1188 (ycgB) fusion, 90 minutes): >2X (The designation of “>2X” is given for upregulation)
upregulation of gene fusion (b1188 (ycgB) fusion, 135 minutes): * (“*” is listed if the expression was less than 2 fold increased)
upregulation of gene fusion (b1223 (narK) fusion, 45 minutes): * (“*” is listed if the expression was less than 2 fold increased)
upregulation of gene fusion (b1223 (narK) fusion, 90 minutes): >2X (The designation of “>2X” is given for upregulation)
upregulation of gene fusion (b1223 (narK) fusion, 135 minutes): >2X (The designation of “>2X” is given for upregulation)
upregulation of gene fusion (b1676 (pykF) fusion, 45 minutes): >2X (The designation of “>2X” is given for upregulation)
upregulation of gene fusion (b1676 (pykF) fusion, 90 minutes): >2X (The designation of “>2X” is given for upregulation)
upregulation of gene fusion (b1676 (pykF) fusion, 135 minutes): >2X (The designation of “>2X” is given for upregulation)
upregulation of gene fusion (b1872 (bisZ) fusion, 45 minutes): * (“*” is listed if the expression was less than 2 fold increased)
upregulation of gene fusion (b1872 (bisZ) fusion, 90 minutes): >2X (The designation of “>2X” is given for upregulation)
upregulation of gene fusion (b1872 (bisZ) fusion, 135 minutes): >2X (The designation of “>2X” is given for upregulation)
upregulation of gene fusion (b1993 (cobU) fusion, 45 minutes): >2X (The designation of “>2X” is given for upregulation)
upregulation of gene fusion (b1993 (cobU) fusion, 90 minutes): >2X (The designation of “>2X” is given for upregulation)
upregulation of gene fusion (b1993 (cobU) fusion, 135 minutes): >2X (The designation of “>2X” is given for upregulation)
upregulation of gene fusion (b2081 fusion, 45 minutes): >2X (The designation of “>2X” is given for upregulation)
upregulation of gene fusion (b2081 fusion, 90 minutes): >2X (The designation of “>2X” is given for upregulation)
upregulation of gene fusion (b2081 fusion, 135 minutes): * (“*” is listed if the expression was less than 2 fold increased)
upregulation of gene fusion (b2237 (inaA) fusion, 45 minutes): * (“*” is listed if the expression was less than 2 fold increased)
upregulation of gene fusion (b2237 (inaA) fusion, 90 minutes): >2X (The designation of “>2X” is given for upregulation)
upregulation of gene fusion (b2237 (inaA) fusion, 135 minutes): >2X (The designation of “>2X” is given for upregulation)
upregulation of gene fusion (b2322 fusion, 45 minutes): * (“*” is listed if the expression was less than 2 fold increased)
upregulation of gene fusion (b2322 fusion, 90 minutes): >2X (The designation of “>2X” is given for upregulation)
upregulation of gene fusion (b2322 fusion, 135 minutes): >2X (The designation of “>2X” is given for upregulation)
upregulation of gene fusion (b2367 (emrY) fusion, 45 minutes): * (“*” is listed if the expression was less than 2 fold increased)
upregulation of gene fusion (b2367 (emrY) fusion, 90 minutes): >2X (The designation of “>2X” is given for upregulation)
upregulation of gene fusion (b2367 (emrY) fusion, 135 minutes): * (“*” is listed if the expression was less than 2 fold increased)
upregulation of gene fusion (b2451 fusion, 45 minutes): * (“*” is listed if the expression was less than 2 fold increased)
upregulation of gene fusion (b2451 fusion, 90 minutes): >2X (The designation of “>2X” is given for upregulation)
